From PubChem BioAssay (NCI)
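GI50 = concentration required for 50% inhibition of growth. TGI: concentration producing complete growth inhibition.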

Key:
Assay in all cases: growth of human tumour cells (NCI), 384-well format
SF-268 CNS = test system: SF-268 CNS
U251 glioblastoma = test system: U251 glioblastoma
HOP-92 NSCLC = test system: HOP-92 NSCLC
KM12 colon = test system: KM12 colon
MALME-3M melanoma = test system: MALME-3M melanoma
RPMI-8226 leukemia = test system: RPMI-8226 leukemia
IGROV1 ovarian = test system: IGROV1 ovarian
HL-60(TB) leukemia = test system: HL-60(TB) leukemia
HCC-2998 colon = test system: HCC-2998 colon
EKVX NSCLC = test system: EKVX NSCLC
OVCAR-8 ovarian = test system: OVCAR-8 ovarian
SK-MEL-28 melanoma = test system: SK-MEL-28 melanoma
A498 renal = test system: A498 renal
PC-3 prostate = test system: PC-3 prostate
SF-295 CNS = test system: SF-295 CNS
T-47D breast = test system: T-47D breast
HOP-62 NSCLC = test system: HOP-62 NSCLC
ACHN renal = test system: ACHN renal
SF-539 CNS = test system: SF-539 CNS
A549 NSCLC = test system: A549 NSCLC
RXF 393 renal = test system: RXF 393 renal
SR leukemia = test system: SR leukemia
MDA-MB-231 breast = test system: MDA-MB-231 breast
NCI-H460 NSCLC = test system: NCI-H460 NSCLC
OVCAR-5 ovarian = test system: OVCAR-5 ovarian
NCI/ADR-RES ovarian = test system: NCI/ADR-RES ovarian
COLO 205 colon = test system: COLO 205 colon
SK-OV-3 ovarian = test system: SK-OV-3 ovarian
SN12C renal = test system: SN12C renal
MCF7 breast = test system: MCF7 breast
MOLT-4 leukemia = test system: MOLT-4 leukemia
DU-145 prostate = test system: DU-145 prostate
HCT-15 colon = test system: HCT-15 colon
M14 melanoma = test system: M14 melanoma
BT-549 breast = test system: BT-549 breast
NCI-H23 lung = test system: NCI-H23 lung
HCT-116 colon = test system: HCT-116 colon
MDA-MB-435 melanoma = test system: MDA-MB-435 melanoma
UACC-62 melanoma = test system: UACC-62 melanoma
OVCAR-4 ovarian = test system: OVCAR-4 ovarian
HT29 colon = test system: HT29 colon
NCI-H322M lung = test system: NCI-H322M lung
CAKI-1 renal = test system: CAKI-1 renal
TK-10 renal = test system: TK-10 renal
LOX IMVI melanoma = test system: LOX IMVI melanoma
SNB-19 CNS = test system: SNB-19 CNS
OVCAR-3 ovarian = test system: OVCAR-3 ovarian
NCI-H522 lung = test system: NCI-H522 lung
UACC-257 melanoma = test system: UACC-257 melanoma
SNB-75 CNS = test system: SNB-75 CNS
NCI-H226 lung = test system: NCI-H226 lung
MDA-MB-468 breast = test system: MDA-MB-468 breast
SK-MEL-5 melanoma = test system: SK-MEL-5 melanoma
HS 578T breast = test system: HS 578T breast

## CC(C)(C)Cn1c(N)nc2ccc(-c3[nH]c(C(C)(C)C)nc3-c3ccc(F)cc3)nc21
SF-268 CNS
  GI50: 11.8 µM
  TGI: 24.3 µM
U251 glioblastoma
  GI50: 6.13 µM
  TGI: 18.6 µM
HOP-92 NSCLC
  GI50: 10.2 µM
  TGI: 22 µM
KM12 colon
  GI50: 5.24 µM
  TGI: 17.4 µM
MALME-3M melanoma
  GI50: 4.26 µM
  TGI: 16.7 µM
RPMI-8226 leukemia
  GI50: 2 µM
  TGI: 5.4 µM
IGROV1 ovarian
  GI50: 2.57 µM
  TGI: 12.4 µM
HL-60(TB) leukemia
  GI50: 3.78 µM
  TGI: 10.4 µM
HCC-2998 colon
  GI50: 3.6 µM
  TGI: 14.4 µM
EKVX NSCLC
  GI50: 2.74 µM
  TGI: 15.4 µM
OVCAR-8 ovarian
  GI50: 9.78 µM
  TGI: 21.8 µM
SK-MEL-28 melanoma
  GI50: 12.6 µM
  TGI: 25.3 µM
A498 renal
  GI50: 4.54 µM
  TGI: 18.6 µM
PC-3 prostate
  GI50: 10.2 µM
  TGI: 22.1 µM
SF-295 CNS
  GI50: 10.6 µM
  TGI: 22.6 µM
T-47D breast
  GI50: 9.88 µM
  TGI: 21.6 µM
HOP-62 NSCLC
  GI50: 11.4 µM
  TGI: 23.7 µM
ACHN renal
  GI50: 1.9 µM
  TGI: 12.3 µM
SF-539 CNS
  GI50: 11.9 µM
  TGI: 24.4 µM
A549 NSCLC
  GI50: 9.53 µM
  TGI: 21.7 µM
RXF 393 renal
  GI50: 12.9 µM
  TGI: 25.6 µM
SR leukemia
  GI50: 2.63 µM
  TGI: 13.5 µM
MDA-MB-231 breast
  GI50: 11.7 µM
  TGI: 24.1 µM
NCI-H460 NSCLC
  GI50: 4.3 µM
  TGI: 16.2 µM
OVCAR-5 ovarian
  GI50: 3.37 µM
  TGI: 13 µM
NCI/ADR-RES ovarian
  GI50: 3.76 µM
  TGI: 17.4 µM
COLO 205 colon
  GI50: 16 µM
  TGI: 29.5 µM
SK-OV-3 ovarian
  GI50: 8.25 µM
  TGI: 21 µM
SN12C renal
  GI50: 1.8 µM
  TGI: 14.7 µM
MCF7 breast
  GI50: 6.64 µM
  TGI: 19.3 µM
MOLT-4 leukemia
  GI50: 7.35 µM
  TGI: 19.5 µM
DU-145 prostate
  GI50: 9.61 µM
  TGI: 21.6 µM
HCT-15 colon
  GI50: 2.16 µM
  TGI: 4.75 µM
M14 melanoma
  GI50: 12.9 µM
  TGI: 25.6 µM
BT-549 breast
  GI50: 12 µM
  TGI: 24.5 µM
NCI-H23 lung
  GI50: 11.5 µM
  TGI: 23.9 µM
HCT-116 colon
  GI50: 6.38 µM
  TGI: 18.9 µM
MDA-MB-435 melanoma
  GI50: 13.4 µM
  TGI: 26.3 µM
UACC-62 melanoma
  GI50: 10.7 µM
  TGI: 22.7 µM
OVCAR-4 ovarian
  GI50: 7.46 µM
  TGI: 20.3 µM
HT29 colon
  GI50: 2.33 µM
  TGI: 6.39 µM
NCI-H322M lung
  GI50: 4.97 µM
  TGI: 17.7 µM
CAKI-1 renal
  GI50: 6.13 µM
  TGI: 19.9 µM
TK-10 renal
  GI50: 3.02 µM
  TGI: 14.6 µM
LOX IMVI melanoma
  GI50: 13.5 µM
  TGI: 26.3 µM
SNB-19 CNS
  GI50: 11.9 µM
  TGI: 24.3 µM
OVCAR-3 ovarian
  GI50: 9.69 µM
  TGI: 21.5 µM
NCI-H522 lung
  GI50: 5.97 µM
  TGI: 18.9 µM
UACC-257 melanoma
  GI50: 2.92 µM
  TGI: 7.71 µM
SNB-75 CNS
  GI50: 13.5 µM
  TGI: 26.5 µM
NCI-H226 lung
  GI50: 13.1 µM
  TGI: 25.8 µM
MDA-MB-468 breast
  GI50: 2.93 µM
  TGI: 15.5 µM
SK-MEL-5 melanoma
  GI50: 3.7 µM
  TGI: 15.7 µM
HS 578T breast
  GI50: 11.4 µM
  TGI: 23.6 µM
